Reference: US20190292243A1, “PEPTIDES AND METHODS OF USE THEREOF” (Fred Hutchinson Cancer Research Center, priority 2016, published 2019)
Square brackets hold non-standard residues; d marks the D form. Ends that are not written are not given here. Peptide text beside a SMILES is read from it. * marks the point of attachment. Dolaproine = CO[C@@H]([C@@H]1CCCN1)[C@@H](C)C(=O)O; Dil = CC[C@H](C)[C@H](NC)[C@@H](CC(=O)O)OC; X1 = C[C@@H](N*)[C@@H](O)c1ccccc1; NMeV = CN[C@H](C(=O)O)C(C)C

Columns and labels:
[1] = system: A375 cells and RH28 cells; assay: Modulation of SEQ ID NO: 15-A accumulation in cells by small molecule drugs (flow cytometry median fluorescence); type: cell-based; settings: drug at increasing concentrations with 1 μM SEQ ID NO: 15-A
Text: This example illustrates the small molecule drug enhancing properties of peptides of this disclosure. Peptides of this disclosure were useful in enhancing or dampening the potency of several small molecule drugs. […] The Approved Oncology Drugs Plated Set VII was obtained from NCI and included histone deacetylase (HDAC) inhibitors such as vorinostat, belinostat, panobinostat, and […]. The tested set also included tyrosine kinase inhibitors, protease inhibitors, and anthracyclines. A375 cells and RH28 cells were plated at 10,000 cells per well in 96 well plates and allowed to adhere overnight. […] Cells were washed three times with PBS-FBS and once in PBS. Cells were trypsinized, resuspended in PBS-FBS-DAPI, and assessed for average fluorescence as compared to untreated cells by flow cytometry analysis. […] Cells were washed three times with PBS-FBS and once in PBS. Cells were trypsinized, resuspended in PBS-FBS-DAPI, and assessed for average fluorescence as compared to untreated cells by flow cytometry analysis.

[2] = system: Caspase-3 activation in Ramos lymphoma tumor, liver, kidney; assay: Caspase-3 staining of tissues after MMAE or peptide-MMAE conjugate; type: in vivo, female Harlan athymic mice; settings: 7.5 nmol, 48 hours after single systemic administration
Procedure: This example illustrates whole-body autoradiography and Caspase-3 staining after administration of peptide conjugated to MMAE. MMAE was conjugated to a peptide of SEQ ID NO: 26 with a Val-Cit-PABC linker to produce a SEQ ID NO: 26-B peptide conjugate (SEQ ID NO: 26-B). 7.5 nmol MMAE or 7.5 nmol SEQ ID NO: 26-B were administered to RH-28 tumor-bearing or Ramos lymphoma tumor-bearing female Harlan athymic mice and allowed to freely circulate for 24 or 48 hours.

RH28 flank tumors = assay: Chirality in tumor homing, RH28 flank tumors (ex vivo IVIS); set-up: species or system mice; settings: AF647 conjugates, 10 nmol per mouse intravenously, one hour
Procedure: This example illustrates the role of chirality in tumor homing peptides of this disclosure. Each L-enantiomer in a peptide of SEQ ID NO: 15 was replaced with the corresponding D-enantiomer (SEQ ID NO: 36). Both peptides were conjugated to AlexaFluor 647 and tumor homing, and homing to the liver and kidneys was assessed by fluorescence quantification. […] Peptide-AF647 conjugates were administered intravenously to mice bearing RH28 flank tumors at 10 nmol per mouse. Mice were euthanized one hour post-administration, organs were necropsied, and tissues were analyzed ex vivo using an IVIS imager. P-values were determined using an unpaired Student's t-test.

A673 cell line = assay: Relative viability of A673 cells; type: cell-based; settings: various doses
Procedure: (§1) This example describes the viability different cell lines to MMAE or MMAE-peptide conjugates and toxicity induced by delivery of MMAE to cells by a peptide conjugate of the disclosure. A peptide of SEQ ID NO: 26 was expressed recombinantly or chemically synthesized and then conjugated to a therapeutic agent, MMAE, by a Val-Cit-PAB linker, producing SEQ ID NO: 26-B peptide conjugate (SEQ ID NO: 26-B). HeLa cells were treated in vitro with MMAE, SEQ ID NO: 26 peptide, or SEQ ID NO: 26-B, and viability was quantified. Ewing's Sarcoma cell lines including the RH28 cell line, A673 cell line, and A204 cell line, were treated in vitro with MMAE or SEQ ID NO: 26-B for 48-72 hours and viability of cells was quantified.

RH28 cell line = assay: Relative viability of RH28 cells; type: cell-based; settings: various doses
Procedure: as §1

A204 cell line = assay: Relative viability of A204 cells; type: cell-based; settings: 48 hours after administration, various doses
Procedure: as §1

RH-28 tumor = assay: Whole-body autoradiography after peptide-MMAE conjugate administration, RH-28 tumor; type: in vivo, female Harlan athymic mice; settings: 14 nmol, 24 hours after administration
Text: This example illustrates whole-body autoradiography and Caspase-3 staining after administration of peptide conjugated to MMAE. MMAE was conjugated to a peptide of SEQ ID NO: 26 with a Val-Cit-PABC linker to produce a SEQ ID NO: 26-B peptide conjugate (SEQ ID NO: 26-B). […]
At the end of the dosing period, mice were frozen in a hexane/dry ice bath and then frozen in a block of carboxymethylcellulose. […] Thin, frozen sections of mice were obtained with a microtome, allowed to desiccate in a freezer, and exposed to phosphoimager plates for about ten days.
These plates were developed, and the signal (densitometry) from each organ was normalized to the signal found in the heart blood of each mouse. A signal in tissue darker than the signal expected from blood in that tissue indicates peptide accumulation in a region, tissue, structure or cell.

[3] = 72 hours of continuous treatment

Cn1c(=O)n(-c2ccc(C(C)(C)C#N)cc2)c2c3cc(-c4cnc5ccccc5c4)ccc3ncc21 [BEZ235]
modulation of accumulation of SEQ ID NO: 15-A in tumor cells (median fluorescence vs untreated) [1]: modulate the accumulation of peptides of this disclosure to tumor cells

CC[C@H](C)[C@@H]([C@@H](CC(=O)N1CCC[C@H]1[C@H](OC)[C@@H](C)C(=O)N[C@H](C)[C@@H](O)c1ccccc1)OC)N(C)C(=O)[C@@H](NC(=O)[C@@H](NC)C(C)C)C(C)C [MMAE, monomethyl auristatin E] (H-[NMeV]V[Dil][Dolaproine]-X1)
Caspase-3 staining in tumor, liver and kidney [2]: induction of apoptosis

Nc1ccn([C@@H]2O[C@H](CO)[C@@H](O)[C@@H]2O)c(=O)n1 [cytarabine]
modulation of accumulation of SEQ ID NO: 15-A in tumor cells (median fluorescence vs untreated) [1]: modulate the accumulation of peptides of this disclosure to tumor cells

O=C(CCCCCCC(=O)Nc1ccccc1)NO [vorinostat]
modulation of accumulation of SEQ ID NO: 15-A in tumor cells (median fluorescence vs untreated) [1]: modulate the accumulation of peptides of this disclosure to tumor cells

GSSCEPGRTFRDRCNTCRCGADGRSAACTLRACPNQ (not fully specified (some residues); ends and bridges not checked) [SEQ ID NO: 15]
homing to RH28 flank tumor (average radiant efficiency fluorescence), L- vs D-amino acid peptide (RH28 flank tumors): higher homing to flank tumor than a peptide of SEQ ID NO: 36

SEQ ID NO: 15-B (GSSCEPGRTFRDRCNTCRCGADGRSAACTLRACPNQ; cysteine pairing not given here; also: conjugate B)
relative viability / growth of A673 cells (A673 cell line; 48 hours after administration): inhibited growth of all three cell lines
relative viability / growth of RH28 cells (RH28 cell line; 48 hours after administration): inhibited growth of all three cell lines
relative viability / growth of A204 cells (A204 cell line): inhibited growth of all three cell lines

SEQ ID NO: 26-B (GSSCEPGRTFRDRCNTCKCGADGRSAACTLRACPNQ; cysteine pairing not given here; also: conjugate B)
relative viability / growth of A673 cells (A673 cell line; [3]): inhibited growth of both cell lines
relative viability / growth of RH28 cells (RH28 cell line; [3]): inhibited growth of both cell lines

SEQ ID NO: 26-Br (GSSCEPGRTFRDRCNTCKCGADGRSAACTLRACPNQ; cysteine pairing not given here; also: conjugate Br)
14C signal distribution in tissues (autoradiography) (RH-28 tumor): accumulation in the RH-28 tumor

bleomycin
modulation of accumulation of SEQ ID NO: 15-A in tumor cells (median fluorescence vs untreated) [1]: modulate the accumulation of peptides of this disclosure to tumor cells
